Reference: article PMC10165273, “Itch receptor MRGPRX4 interacts with the receptor activity–modifying proteins” (The Journal of Biological Chemistry, 2023)
“And” between values parts separate entries of the source, which are not always exact repeats. Equal entries are not always repeated. Where two headings read alike, the source gives them in different places.

Experiments:
MRGPRX4 + RAMP1 = target: T1, MRGPRX4 + RAMP1 (Homo sapiens, UniProt Q96LA9); experiment: IP1 accumulation, MRGPRX4 coexpressed with RAMP1; format: cell-based; parameters: key to IP1 Basal / response to agonist, X4:ramp1.I:1 / response to agonist, X4:ramp1.I:2 / response to agonist, X4:ramp1.I:0.25 / response to agonist, X4:ramp1.I:0.5: % IP1; unstimulated mock = 0%, fully stimulated MRGPRX4 = 100%; details: for IP1 accumulation (normalized): MRGPRX4+RAMP1 1pg 1:1, Supplementary Figure 5d, 5g
T1 construct: expressed in transfected cells; host or cells: HEK293T
Protocol: HEK293T cells were transfected with 1 pg/cell of MRGPRX4 DNA, and the amount of DNA was kept constant at 2 pg/cell with pcDNA3.1(+) empty vector, unless otherwise specified. Twenty four hours after transfection, IP1 assay was performed as previously described ([51]). When applicable, cells were treated with 1 μM YM254890 (YM) or different concentrations of U73122 for 1 h prior to addition of agonist or buffer. After incubation for 2 h, HTRF reagents and IP1 calibration standards were added and incubated for 2 h in the dark at room temperature. Time-resolved fluorescence signals were read on the BioTek Synergy NEO-TRF Hybrid multi-mode reader (BioTek Instruments). All data were carried out in three independent experiments with three technical replicate each.
For a homogenous transfection of MRGPRX4, a master mix of MRGPRX4 DNA was made prior to addition of the RAMP DNA. […]
Data reduction, standard calibration, and transformation of HTRF data were performed as previously described ([51]). Normalized IP1 values were calculated relative to the unstimulated mock-transfected cells (set to 0%) and fully stimulated MRGPRX4 (alone if applicable) (set to 100%).

[1] = system: mock-transfected HEK293T cells; experiment: IP1 accumulation, mock-transfected cells; format: cell-based, human; parameters: IP1 Basal / IP1 span / IP1 Emax / IP1 accumulation, dose-response (Figure 1a) / IP1 accumulation with YM (Figure 1c) / IP1 accumulation: unit not given here; details: for IP1 accumulation, dose-response (Figure 1a): pcDNA (mock), individual replicates; for IP1 accumulation: mock, Fig S3a-c

T1 sequence (Q96LA9 whole entry): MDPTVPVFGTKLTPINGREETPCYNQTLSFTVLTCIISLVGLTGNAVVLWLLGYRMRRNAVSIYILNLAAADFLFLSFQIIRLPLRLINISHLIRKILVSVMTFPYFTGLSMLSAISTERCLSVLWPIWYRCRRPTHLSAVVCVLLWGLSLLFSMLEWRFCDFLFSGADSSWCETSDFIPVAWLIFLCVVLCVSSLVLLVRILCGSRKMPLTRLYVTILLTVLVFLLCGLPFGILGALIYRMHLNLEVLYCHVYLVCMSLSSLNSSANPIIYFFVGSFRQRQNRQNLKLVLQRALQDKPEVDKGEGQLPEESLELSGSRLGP

CC(C)[C@H]1CC[C@H](C(=O)N[C@H](Cc2ccccc2)C(=O)O)CC1 [Nateglinide]
EC50 (MRGPRX4 + RAMP1; Figure 4a top, DNA ratio MRGPRX4:RAMP1 1:0.5, individual replicates, read-out: potency (converted)): 10.5 µM
EC50 (MRGPRX4 + RAMP1; Figure 4a top, DNA ratio MRGPRX4:RAMP1 1:0.75, individual replicates, read-out: potency (converted)): 10.7 µM and 11.9 µM and 6.64 µM
EC50 (MRGPRX4 + RAMP1; Figure 4a top, DNA ratio MRGPRX4:RAMP1 1:1, individual replicates, read-out: potency (converted)): 9.29 µM and 9.23 µM
response to agonist, X4:ramp1.I:0.25 (MRGPRX4 + RAMP1; Figure 4c-f, agonist 100µM, X4:ramp1 1:0.25, MRGPRX4 = 100): 94.0571 and 91.2695
response to agonist, X4:ramp1.I:0.5 (MRGPRX4 + RAMP1; Figure 4c-f, agonist 100µM, X4:ramp1 1:0.5, MRGPRX4 = 100): 83.4975 and 100.084
response to agonist, X4:ramp1.I:1 (MRGPRX4 + RAMP1; Figure 4c-f, agonist 100µM, X4:ramp1 1:1, MRGPRX4 = 100): 101.298 and 92.1048
response to agonist, X4:ramp1.I:2 (MRGPRX4 + RAMP1; Figure 4c-f, agonist 100µM, X4:ramp1 1:2, MRGPRX4 = 100): 90.9768 and 105.34
IP1 Basal (MRGPRX4 + RAMP1; MRGPRX4 + RAMP1 0.25 pg (Fig. S3), normalized per agonist): 19.44
EC50 (MRGPRX4 + RAMP1; MRGPRX4 + RAMP1 0.25 pg (Fig. S3), normalized per agonist, read-out: IP1 EC50): 11.5 µM
Emax (MRGPRX4 + RAMP1; MRGPRX4 + RAMP1 0.25 pg (Fig. S3), normalized per agonist, read-out: IP1 Emax): 112%
Emax (MRGPRX4 + RAMP1; MRGPRX4 + RAMP1 0.25 pg (Fig. S3), normalized per agonist, read-out: IP1 span): 92.4%
IP1 Basal (MRGPRX4 + RAMP1; MRGPRX4 + RAMP1 0.5 pg (Fig. S3), normalized per agonist): 18.21
EC50 (MRGPRX4 + RAMP1; MRGPRX4 + RAMP1 0.5 pg (Fig. S3), normalized per agonist, read-out: IP1 EC50): 9.56 µM
Emax (MRGPRX4 + RAMP1; MRGPRX4 + RAMP1 0.5 pg (Fig. S3), normalized per agonist, read-out: IP1 Emax): 115%
Emax (MRGPRX4 + RAMP1; MRGPRX4 + RAMP1 0.5 pg (Fig. S3), normalized per agonist, read-out: IP1 span): 96.6%
IP1 Basal (MRGPRX4 + RAMP1; MRGPRX4 + RAMP1 1 pg (Fig. S3), normalized per agonist): 16.52
EC50 (MRGPRX4 + RAMP1; MRGPRX4 + RAMP1 1 pg (Fig. S3), normalized per agonist, read-out: IP1 EC50): 9.45 µM
Emax (MRGPRX4 + RAMP1; MRGPRX4 + RAMP1 1 pg (Fig. S3), normalized per agonist, read-out: IP1 Emax): 114%
Emax (MRGPRX4 + RAMP1; MRGPRX4 + RAMP1 1 pg (Fig. S3), normalized per agonist, read-out: IP1 span): 97.4%
IP1 Basal (MRGPRX4 + RAMP1; MRGPRX4 + RAMP1 2 pg (Fig. S3), normalized per agonist): 11.98
EC50 (MRGPRX4 + RAMP1; MRGPRX4 + RAMP1 2 pg (Fig. S3), normalized per agonist, read-out: IP1 EC50): 9.37 µM
Emax (MRGPRX4 + RAMP1; MRGPRX4 + RAMP1 2 pg (Fig. S3), normalized per agonist, read-out: IP1 Emax): 114%
Emax (MRGPRX4 + RAMP1; MRGPRX4 + RAMP1 2 pg (Fig. S3), normalized per agonist, read-out: IP1 span): 102%
IP1 Basal (MRGPRX4 + RAMP1; Tet-On MRGPRX4:RAMP1 Ratio 1:0.5 (Fig. S5D)): 7.772
EC50 (MRGPRX4 + RAMP1; Tet-On MRGPRX4:RAMP1 Ratio 1:0.5 (Fig. S5D), read-out: IP1 EC50): 8.42 µM
Emax (MRGPRX4 + RAMP1; Tet-On MRGPRX4:RAMP1 Ratio 1:0.5 (Fig. S5D), read-out: IP1 Emax): 111%
Emax (MRGPRX4 + RAMP1; Tet-On MRGPRX4:RAMP1 Ratio 1:0.5 (Fig. S5D), read-out: IP1 span): 104%
IP1 Basal (MRGPRX4 + RAMP1; Tet-On MRGPRX4:RAMP1 Ratio 1:0.75 (Fig. S5D)): 6.875
EC50 (MRGPRX4 + RAMP1; Tet-On MRGPRX4:RAMP1 Ratio 1:0.75 (Fig. S5D), read-out: IP1 EC50): 5.95 µM
Emax (MRGPRX4 + RAMP1; Tet-On MRGPRX4:RAMP1 Ratio 1:0.75 (Fig. S5D), read-out: IP1 Emax): 90%
Emax (MRGPRX4 + RAMP1; Tet-On MRGPRX4:RAMP1 Ratio 1:0.75 (Fig. S5D), read-out: IP1 span): 83.1%
IP1 Basal (MRGPRX4 + RAMP1; Tet-On MRGPRX4:RAMP1 Ratio 1:1 (Fig. S5D)): 7.220
EC50 (MRGPRX4 + RAMP1; Tet-On MRGPRX4:RAMP1 Ratio 1:1 (Fig. S5D), read-out: IP1 EC50): 6.43 µM
Emax (MRGPRX4 + RAMP1; Tet-On MRGPRX4:RAMP1 Ratio 1:1 (Fig. S5D), read-out: IP1 Emax): 89.6%
Emax (MRGPRX4 + RAMP1; Tet-On MRGPRX4:RAMP1 Ratio 1:1 (Fig. S5D), read-out: IP1 span): 82.3%
IP1 accumulation (normalized) (MRGPRX4 + RAMP1; log [nateglinide] (M) -4): 91.5442 and 89.3648 and 84.5333 and 68.7205
IP1 accumulation (normalized) (MRGPRX4 + RAMP1; log [nateglinide] (M) -4.69897): 71.6977 and 68.3681 and 72.5875
IP1 accumulation (normalized) (MRGPRX4 + RAMP1; log [nateglinide] (M) -5.39794): 40.9098 and 36.9736 and 38.5575
IP1 accumulation (normalized) (MRGPRX4 + RAMP1; log [nateglinide] (M) -6.09691): 15.3098 and 13.9439 and 10.1316
IP1 accumulation (normalized) (MRGPRX4 + RAMP1; log [nateglinide] (M) -7.49485): 9.7787 and 6.02 and 5.114
IP1 accumulation, dose-response (Figure 1a) ([1]; log [agonist] (M) -4): 0.2271 and 0.3078 and 0.4629 and -0.5571 and 0.3306 and 0.0456 and 0.8656 and -0.04322 and 0.1347 and -0.9843 and -0.02794 and -0.8867
IP1 accumulation, dose-response (Figure 1a) ([1]; log [agonist] (M) -4.95424): 0.4814 and 0.1593 and 0.9731 and 0.2847 and 0.3905 and 0.01267 and 0.9879 and -0.1469 and 0.1915 and -0.5702 and -0.3086 and -0.9418
IP1 accumulation, dose-response (Figure 1a) ([1]; log [agonist] (M) -5.90849): 0.6831 and 0.2899 and 0.8301 and 0.7307 and 0.1868 and 0.3562 and 0.4874 and 0.05414 and 0.7331 and -0.7448 and -0.08445 and -0.6788
IP1 accumulation, dose-response (Figure 1a) ([1]; log [agonist] (M) -6.86273): 1.046 and 0.7412 and 1.424 and 1.025 and 0.6018 and 0.6703 and 1.266 and 0.6126 and 1.453 and 0.03754 and 0.2747 and 0.1665
IP1 accumulation ([1]; log [Nateglinide] (M) -4): 1.284 and 1.14
IP1 accumulation ([1]; log [Nateglinide] (M) -4.69897): 0.9537 and 0.9999 and 1.07
normalized IP1 accumulation ([1]; pcDNA, log [agonist] (M) -5.39794): 0.47 and 0.5436 and 0.4562
